Measurements as given in patent US11046753B2, “Antibody composition and buffer system therefor” (INNOVA BIOSCIENCES LTD, priority 2013, dated 2021).
“Also recorded” adds a separate entry of the source.

Key:
[1] = Effect of additives on the thiolation reagent 2-iminothiolane (thiol release, DTNB, A405); settings: 50 mM additive, pH 8.0, 30 minutes
Protocol: 20 μl of 2 mM 2-iminothiolane was added to each well and mixed quickly and the absorbance values were read at 405 nm every minute for 30 minutes using a Tecan Infinite M200 plate reader with i-Control 1.4 software. […] In control reaction, there is a steady linear increase in absorbance as the reagent is hydrolysed by water. […] The rising baseline can be attributed to the known sensitivity of 2-iminothiolane to hydrolysis at alkaline pH values.

[2] = NHS ester (fluorescein) conjugation of rabbit IgG in presence of additive, dye to protein ratio; settings: 50 mM additive, sodium phosphate pH 8.0
Protocol: Conjugates were desalted on PD10 columns equilibrated in TBS buffer and absorbance values of the eluted solutions were determined at 280 nm and 495 nm. The ratio of moles dye to moles of protein for antibody dye conjugates in the presence of various additives is shown in FIG. 4.

[3] = Lightning-Link fluorescein conjugation of goat anti-rabbit IgG in presence of additive, fluorescence assay; settings: 50 mM additive
Protocol: Black 96-well plates (Greiner Bio-One (code 655077)) were incubated with 50 ul rabbit IgG (1 ug/well) overnight at 4° C. The plates were blocked with TBS/0.1% BSA for 1 hour at room temperature and washed five times with TBS (wash buffer). Fluorescent antibody conjugates were serially diluted in TBS/0.1% BSA and 50 ul aliquots were added to wells in triplicate. After incubation at room temperature for 1 hour, the plate was washed five times and fluorescence emission was read in using a Tecan Infinite M200 plate reader with i-Control 1.4 software with the appropriate excitation/emission settings (fluorescein, 490 nm/535 nm; phycoeythrin, 535 nm/575 nm. Fluorescence data was plotted as a function of conjugate dilution. To compare results for additives tested in different experiments the data were transformed into a percentage of a control value (i.e. the signal for conjugate prepared in the absence of any test additive).
Reactions were carried out according to the manufacturer's standard protocol except that the additives were included at up to 50 mM concentration in conjugation reactions of Goat-anti-rabbit IgG using fluorescein Lightning-Link kit (product code 707-0010, Innova Biosciences, UK). Conjugates were tested according to the protocol described in Example 2.

[4] = Carbodiimide (EDC)-mediated conjugation of goat anti-rabbit IgG to carboxylated gold nanoparticles in presence of additive, read by lateral flow assay; settings: pH 5
Protocol: Molecules were tested initially at pH 5 in EDC-mediated reactions with carboxylated gold particles (InnovaCoat GOLD, Innova Biosciences). Potentially interesting molecules from this screening exercise were further evaluated in NHS ester reactions, isothiocyanate reactions and thiolation reactions involving iminothiolane. All of these reactions are widely used in the antibody conjugation field and all would be expected to suffer from interference in the presence of glycine.
Lateral flow test strips (4 mm wide) were prepared from nitrocellulose membrane (Millipore Hi Flow plus 90) striped with goat anti-rabbit IgG (test line) and biotin-BSA (control line). Strips were housed in plastic cartridges and samples of gold conjugate (80 ul) were added to the sample pad. Cartridges were allowed to stand for 30 min and then read using a ESE-Quant GOLD reader—QIAGEN. Each sample was spiked with a fixed amount of streptavidin-gold (Innova biosciences—Product code: 250-0200), which binds to the control line, to check that each test strip had run correctly and that test line data was valid.
10 μg of goat anti-rabbit IgG (GAR) was used per ml of coated 40 nm nanoparticles with carboxyl functionality (InnovaCoat GOLD, Innova Biosciences) at […] in the presence of additives at 50 mM final concentration. Typically reactions were set up with the following additions: 40 μl of 40 nm InnovaCoat (carboxylated) gold nanopartcles, were incubated 5 minutes with 4 μl 0.1 mg/ml GAR, 20 μl water, and 80 μl of 100 mM MES buffer containing 100 mM of additive, pH 5.0. Next, 16 μl of 1 mM EDC was added and after 10 min incubation at 22° C., 20 μl of 10×TBS/1% Tween20 and 20 μl of water was added to give 2 OD conjugate.
Gold conjugates were mixed when required with rabbit IgG ((final concentration 50 ng/ml) at 22° C. Conjugates were 0.2 OD final concentration (i.e. 1/10 dilution from stock conjugates). Samples were run in triplicate on lateral flow test strips as described in Example 1.

[5] = Isothiocyanate (FITC) conjugation of rabbit IgG in presence of additive, dye to protein ratio; settings: 50 mM additive, CHES pH 9.0
Protocol: Conjugates were desalted on PD10 columns (GE Healthcare) in TBS buffer and the absorbance values of the eluted solutions were determined at 280 nm and 495 nm. The ratio of moles dye to moles of protein for antibody dye conjugates in the presence of various additives is shown in FIG. 3.

Glycine
release of thiols from 2-iminothiolane versus control [1]: rapid hydrolysis and ring opening; also recorded: reacts rapidly | ratio of moles dye to moles of protein versus control, fluorescein NHS ester [2]: substantial interference | interference in Lightning-Link fluorescein conjugation reaction [3]: significant interference | % of Signal [4]: 94% | interference in carbodiimide-mediated antibody-gold nanoparticle conjugation reaction [4]: no interference; also recorded: do not interfere; also recorded: does not | ratio of moles dye to moles of protein versus control, FITC [5]: significant interference
